Literature values as cited in patent US11596166B2 (priority 2017, dated 2023).

System: pellagra patients
Conditions: in vivo

## O=C(O)c1cccnc1 [nicotinic acid]
  acute mental symptoms: disappear rapidly, often over night
  symptoms of pellagra: disappearance of many symptoms of the disease
  time to blanching of acute erythematous dermal lesions with intact epithelium: ≤ 48 h
  time to cessation of nausea and vomiting, normal bowel movements: 24 to 72 h
  time to subsidence of redness and swelling of tongue, gums, mouth, throat, and vagina: 24 to 72 h
